Measured values reported in patent publication US20180339010A1, “USE OF SHORT SYNTHETIC PEPTIDE FOR THE TREATMENT AND/OR PROPHYLAXIS OF DRY EYE DISEASE” (priority 2015, published 2018).

Tests used:
Assay type in all cases: in vivo, C57BL/6 mice
[1] = tested on: desiccating stressed-mice; assay: Corneal fluorescein staining, prophylactic treatment in desiccating stress-induced dry eye (CEC) model; details: for biological function towards DED (summary statement): deletion peptides of SEQ ID NO: 2; for corneal fluorescein staining (score), FIG. 1B: peptide 100 μM topically to eyes three times daily for 14 days, started first day in CEC, 1% CMC vehicle 3.8±0.31
Procedure: (§1) C57BL/6 mice (7-8 weeks old, each weighted about 18 to 25 g) were used in the present study. All mice were maintained in the animal facility in accordance with the procedures approved by Mackay Memorial Hospital Review Board (Taiwan, R.O. C.). All animal experimental procedures were conducted according to the ARVO Statement for the Use of Animals in Ophthalmic and Vision Research.
(§2) Dry eyes were induced by placing mice in a controlled environment chamber (CEC) in accordance with procedures previously described by Barabino et al (IVOS (2005) 46(8), 2766-2771). Mice placed in the CEC were exposed to a relative humidity (RH)<25%, temperature of 20 to 22° C., and airflow of 15 L/min, 12 hours per day. Control mice were kept in a normal environment (RH >50%, no air flow, temperature of 21-23° C.) for the same duration.
Animals were anesthetized by an intraperitoneal injection of a mixture of zoletil (6 mg/kg) and xylazine (3 mg/kg). Corneal epithelial injury was determined by staining with topical fluorescein (Fluor-I-Strip, Ayerst Laboratories, Philadelphia, Pa.). Corneal fluorescein staining was examined with a slit-lamp biomicroscope under cobalt blue light and photographed with a digital camera. Data is presented as mean±SD. The number of fluorescein staining dots were graded in the 1-mm central cornea zone of each eye, on a standardized five-point scale (0 dot, grade 0; 1-5 dots, grade 1; 6-15 dots, grade 2; 16-30 dots, grade 3; 30 dots, grade 4). One point was added to the score if there was one area of confluent staining, and two points were added for two or more areas of confluence. (Li J et al., Mole Visions 2012, 18, 317)
(§3) Dry eye was created in mice using a controlled environmental chamber (CEC) in accordance with procedures described in the “material and method” section. Treatment was started on the first day when the mice were housed in CEC, in which the present synthetic peptide (i.e., 7-mer, 100 μM), peptide vehicle (1% CMC), or peptides derived from 7-mer (i.e., 7-mer-ΔD, 7-mer-ΔS, 7-mer (V→L) and 7-mer (VR→QK), 100 μM) were topically administered to eyes three times daily for 14 days. The peptides 7-mer-ΔD (LYRVRS, SEQ ID NO: 6) and 7-mer-ΔS (DLYRVR, SEQ ID NO: 7) represented peptides with one amino acid residue respectively deleted from 5-end (D; Aspartic acid) and 3′-end (S; Serine) of 7-mer, and were used as negative control peptides. In addition, the effects of single and double amino-acid substitution at 7-mer that generate 7-mer (V→L) and 7-mer (VR→QK) were also used to treat dry eye.
Fluorescein staining was used to assess changes in corneal epithelial integrity, and results are illustrated in FIGS. 1A and 1B. FIG. 1A are photographs taken on dry eyes respectively treated with the 1% CMC vehicle, 7-mer and its derivates; and FIG. 1B gives the quantitative analysis of FIG. 1A.

[2] = tested on: desiccating stressed-mice; assay: Tear production (phenol red thread), prophylactic treatment in desiccating stress-induced dry eye model; details: peptide 100 μM topically three times daily for 14 days in CEC; vehicle control 3.7±0.25
Procedure: as §1, §2
Tear production was measured by phenol red-impregnated cotton threads (Zone-Quick; Oasis, Glendora, Calif.). The validity of this test in mice was performed in accordance with procedures previously described by Dursun et al. (IVOS (2002) 43, 632-638). The threads were held with jeweler forceps and placed in the lateral canthus for 60 seconds. The tear production expressed in millimeters of thread wet by the tear and turned red.
as §3
The protective effects of 7-mer and its derivatives on DED were also evaluated by measuring tears produced by the test animals, and results are depicted in FIG. 2.

[3] = tested on: desiccating stressed-mice; assay: Corneal fluorescein staining, therapeutic treatment of desiccation stress-induced dry eye; details: 14 days in CEC, then eye drops for 7 days in normal environment (day 21); peptides 100 μM; 1% CMC control 3.6±0.26
Procedure: as §1, §2
Animals were anesthetized by an intraperitoneal injection of a mixture of zoletil (6 mg/kg) and xylazine (3 mg/kg). Corneal epithelial injury was determined by staining with topical fluorescein (Fluor-I-Strip, Ayerst Laboratories, Philadelphia, Pa.). Corneal fluorescein staining was examined with a slit-lamp biomicroscope under cobalt blue light and photographed with a digital camera. Data is presented as mean±SD. […]

[4] = tested on: desiccating stressed-mice; assay: Corneal epithelial histopathology (H&E), detached superficial apical cells, therapeutic treatment; details: 14 days in CEC, then eye drops for 7 days, peptides 100 μM; for detached superficial apical cells on H&E stained cornea sections, observation in words, FIG. 4A: 0.1% Dex; for detached superficial apical cells (number), FIG. 4B: 1% CMC control 14±1.06
Procedure: as §1, §2
The corneal epithelial damage was assessed as described previously (Pflugfelder et al., 2005, Am J Pathol 166, 61-71). In brief, the number of detaching apical cells was counted from a full microscope field-of vision from three separate tissue sections, by two independent masked observers, using a 20 objective. Three mice were evaluated in each treatment
Dry eye was created by housing the test animals in CEC for 14 days in accordance with procedures described in the “material and method” section. After confirmation of signs of DED by fluorescein stain (FIG. […] 3A; lower panel; day 21; and FIG. 3B).

[5] = tested on: desiccating stressed-mice; assay: PAS staining of goblet cells in conjunctival epithelium, therapeutic treatment; details: 14 days in CEC, then eye drops for 7 days; for number of goblet cells in PAS-stained sections, observation in words, FIG. 5A: peptides 100 μM
Procedure: as §1, §2
After animals were euthanized, eyes were surgically excised, fixed in 10% formalin, paraffin embedded, and cut into 5-μm sections. […] Statistics
Dry eye was created by housing the test animals in CEC for 14 days in accordance with procedures described in the “material and method” section. After confirmation of signs of DED by fluorescein stain (FIG. 3A; upper panel; day 14), animals were then removed from the CEC and placed in the normal environment (day 15), then started treatment by administering eye drop containing 1% CMC, 1% dexamethasone (Dex), 7-mer (100 μM), or 7-mer (ΔS) (100 μM) for 7 days (FIG. 3A; lower panel; day 21; and FIG. 3B).

DLYRVR [7-mer (ΔS), negative control peptide, 7-mer with C-terminal serine deleted]
biological function towards DED (summary statement) [1]: do not possess any biological function towards DED | corneal fluorescein staining (score), FIG. 1B [1]: no such effect | tear production (thread wet by the tear), FIG. 2 [2]: neither 7-mer (ΔD) nor 7-mer (ΔS) peptides possessed such effect | corneal fluorescein staining score, FIG. 3B [3]: no therapeutic effect | detached superficial apical cells on H&E stained cornea sections, observation in words, FIG. 4A [4]: Detached superficial apical cells were identified | detached superficial apical cells (number), FIG. 4B [4]: 13.8±1.03 | number of goblet cells in PAS-stained sections, observation in words, FIG. 5A [5]: significant reduction in the number of goblet cells

DLYRQKS [7-mer (VR→QK), NH2-Asp-Leu-Tyr-Arg-Gln-Lys-Ser-COOH]
tear production (thread wet by the tear), FIG. 2 [2]: 4.9±0.15 millimeters

DLYRVRS [7-mer, NH2-Asp-Leu-Tyr-Arg-Val-Arg-Ser-COOH]
corneal fluorescein staining (score), FIG. 1B [1]: 1.3±0.21 | tear production (thread wet by the tear), FIG. 2 [2]: 5.1±0.21 millimeters | corneal fluorescein staining score, FIG. 3B [3]: 1.5±0.18 | detached superficial apical cells on H&E stained cornea sections, observation in words, FIG. 4A [4]: no detached cells were found | detached superficial apical cells (number), FIG. 4B [4]: 2.1±0.37 | goblet cells (number), FIG. 5B ([5]; 7-mer 100 μM, 1% CMC control 7.5±0.96): 12.7±1.28 | number of goblet cells in PAS-stained sections, observation in words, FIG. 5A [5]: relatively the same as that of the normal healthy mice

DLYRLRS [7-mer (V→L), NH2-Asp-Leu-Tyr-Arg-Leu-Arg-Ser-COOH]
tear production (thread wet by the tear), FIG. 2 [2]: 5.0±0.16 millimeters

LYRVRS [7-mer (ΔD), negative control peptide, 7-mer with N-terminal aspartate deleted]
biological function towards DED (summary statement) [1]: do not possess any biological function towards DED | corneal fluorescein staining (score), FIG. 1B [1]: no such effect | tear production (thread wet by the tear), FIG. 2 [2]: neither 7-mer (ΔD) nor 7-mer (ΔS) peptides possessed such effect
